Entries after “also recorded” stand apart in the source; their conditions may differ. Like-named read-outs stand apart in the source and are kept apart here.
Assays:
[1] = Metabolic stability in hepatocytes; type: in vitro ADME; settings: human, 60-90 min test; for hepatocyte CLint: read-out: Metabolic stability, Human hepatocytes: Clearance; for half-life: read-out: Metabolic stability, Human hepatocytes: t1/2
CDK5/p35NCK = CDK5/p35NCK (Homo sapiens, UniProt Q00535); assay: Kinase profiling; type: biochemical; settings: 10 semi-logarithmic dilutions from 50 μM, singlicate
CDK5/p25NCK = CDK5/p25NCK (Homo sapiens, UniProt Q00535); assay: Kinase profiling; type: biochemical; settings: 10 semi-logarithmic dilutions from 50 μM, singlicate
CDK1/CycB1 = CDK1/CycB1 (Homo sapiens, UniProt P06493); assay: Kinase profiling; type: biochemical; settings: 10 semi-logarithmic dilutions from 50 μM, singlicate
MDA-MB-231 cells = assay: Senescence assay (β-Galactosidase staining); type: cell-based, human; settings: at GI50; 3 days or 14 days exposure; FIGS. 2 and 3
Description: MDA-MB-231 cells were seeded in 6-well plates (65,000 cells/well) and treated with the selected compounds at their respective GI50. At 3, 7 and 14 days after treatment cells were stained with Senescence β-Galactosidase Staining Kit (Cell Signaling) at 37° C. overnight. Blue coloured senescent cells were counted with an optical microscope. Medium and compounds were refreshed every 3 days.
Cell cycle arrest can be irreversible in case of senescence induction.

CDK12wt/CycK = CDK12wt/CycK (Homo sapiens, UniProt Q9NYV4); assay: Kinase profiling; type: biochemical; settings: 10 semi-logarithmic dilutions from 50 μM, singlicate
HIPK2 = HIPK2 (Homo sapiens, UniProt Q9H2X6); assay: Kinase profiling; type: biochemical; settings: 10 semi-logarithmic dilutions from 50 μM, singlicate; read-out: IC50 HIPK2
[2] = system: U87MG glioblastoma cell line; assay: Proliferation assay: determination of GI50; type: cell-based, human; settings: Homo sapiens, U-87 MG
Description: (§1) The following human tumor cell lines, all Retinoblastoma (Rb)-proficient, were used in this study: MDA-MB231 (breast cancer), MDA-MB453 (breast cancer), U87MG (glioblastoma) and H460 (lung cancer). MDA-MB468 (breast cancer) and SW1783 (glioblastoma) Rb-deficient cells were also included in the study, as well as the MCF10A non-transformed mammary epithelial cell line. Tumor cell lines were maintained in DMEM or RPMI-1640 medium, depending on the cell line, supplemented with 10% FBS. MCF10A cells were grown in complete mammary epithelial growth medium (MEGM, Lonza). Cell lines were authenticated by short tandem repeat (STR) loci profiling with the GenePrint® 10 System (Promega).
(§2) All human cancer cell lines (Table 2) were obtained from the American Type Culture Collection, and were maintained in DMEM (Hyclone) or RPMI-1640 medium (Sigma) supplemented with 10% fetal bovine serum (Sigma). Non-transformed MCF10 cell line was maintained in MEGM Mammary Epithelial Cell Growth Medium (Lonza). Immortalized mouse embryonic fibroblasts (MEFs) were maintained in DMEM with 10% fetal bovine serum.
(§3) 48 h later cells were fixed with PFA 4% for 15 minutes, stained with 10 μg/ml Hoechst 33342 (Molecular Probes, Thermo Fisher) for 30 minutes and washed twice with PBS. Cells were imaged in a high content screening system (Opera Phoenix™, Perkin Elmer) using a 20× dry objective (30 fields/well). Cell counts were determined by the Opera software (Perkin Elmer) and data were further processed with SPSS software. GI50 was calculated by estimating the absolute IC50 using dose-response inhibition tool in Prism6 (Graphpad Software Inc.).

[3] = system: MDA-MB-231 breast carcinoma cell line; assay: Proliferation assay: determination of GI50; type: cell-based, human; settings: Homo sapiens, MDA-MB-231
Description: as §1, §2, §3

[4] = system: MCF10 non-transformed mammary epithelial cell line; assay: Proliferation assay: determination of GI50; type: cell-based, human; settings: Homo sapiens, MCF10; Table 3; 48 h; n = 2 independent experiments
Description: as §1, §2, §3

[5] = system: H460 lung carcinoma cell line; assay: Proliferation assay: determination of GI50; type: cell-based, human; settings: Homo sapiens, NCI-H460; Table 3; 48 h; n = 2 independent experiments
Description: as §1, §2, §3

CDK2/CycA2 = CDK2/CycA2 (Homo sapiens, UniProt P24941); assay: Kinase profiling; type: biochemical; settings: 10 semi-logarithmic dilutions from 50 μM, singlicate
[6] = system: SW1783 glioblastoma cell line (pRB mutant); assay: Proliferation assay: determination of GI50; type: cell-based; settings: Homo sapiens, Table 4, n = 4, read-out: Growth inhibition GI50, Glioblastoma pRB Mutant SW1783
Description: as §1, §2, §3

[7] = system: MDA-MB-468 breast carcinoma cell line (pRB mutant); assay: Proliferation assay: determination of GI50; type: cell-based; settings: Homo sapiens, Table 4, n = 2, read-out: Growth inhibition GI50, Breast cancer pRB Mutant MDA-MB-468
Description: as §1, §2, §3

CDK6/CycD3 = CDK6/CycD3 (Homo sapiens, UniProt Q00534); assay: Kinase profiling; type: biochemical; settings: 10 semi-logarithmic dilutions from 50 μM, singlicate
CDK7/CycH/MAT1 = CDK7/CycH/MAT1 (Homo sapiens, UniProt P50613); assay: Kinase profiling; type: biochemical; settings: 10 semi-logarithmic dilutions from 50 μM, singlicate
Caco-2 cells = assay: Permeability Caco-2 cells; type: in vitro ADME
[8] = Permeability Caco-2 cells; type: in vitro ADME; settings: human, Caco-2
CDC7/DBF4 = CDC7/DBF4 (Homo sapiens, UniProt O00311); assay: Kinase profiling; type: biochemical; settings: 10 semi-logarithmic dilutions from 50 μM, singlicate; read-out: IC50 CDC7/DBF4
ERK1 = ERK1 (Homo sapiens, UniProt P27361); assay: Kinase profiling; type: biochemical; settings: 10 semi-logarithmic dilutions from 50 μM, singlicate
CDK4/CycD1 = CDK4/CycD1 (Homo sapiens, UniProt P11802); assay: Kinase profiling; type: biochemical; settings: 10 semi-logarithmic dilutions from 50 μM, singlicate
[9] = Table 3, 48 h, n = 3 independent experiments, read-out: GI50 U87MG
[10] = Table 4, n = 4, read-out: Growth inhibition GI50, Glioblastoma pRB Wild-Type U87MG
[11] = Table 3, 48 h, n = 3 independent experiments, read-out: GI50 MDA-MB231
[12] = Table 4, n = 4, read-out: Growth inhibition GI50, Breast cancer pRB Wild-Type MDA-MB-231

Chain of ERK1 (P27361 whole entry): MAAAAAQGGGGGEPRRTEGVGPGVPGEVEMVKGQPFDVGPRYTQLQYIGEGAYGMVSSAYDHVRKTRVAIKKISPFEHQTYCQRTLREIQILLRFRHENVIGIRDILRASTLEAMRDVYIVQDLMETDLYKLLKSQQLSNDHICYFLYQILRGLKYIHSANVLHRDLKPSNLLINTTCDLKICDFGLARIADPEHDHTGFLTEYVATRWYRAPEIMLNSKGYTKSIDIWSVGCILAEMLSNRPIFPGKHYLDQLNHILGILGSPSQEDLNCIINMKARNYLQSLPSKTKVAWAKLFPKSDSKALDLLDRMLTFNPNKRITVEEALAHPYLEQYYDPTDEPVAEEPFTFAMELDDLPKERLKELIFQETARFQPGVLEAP
Chain of CDK7/CycH/MAT1 (P50613 whole entry): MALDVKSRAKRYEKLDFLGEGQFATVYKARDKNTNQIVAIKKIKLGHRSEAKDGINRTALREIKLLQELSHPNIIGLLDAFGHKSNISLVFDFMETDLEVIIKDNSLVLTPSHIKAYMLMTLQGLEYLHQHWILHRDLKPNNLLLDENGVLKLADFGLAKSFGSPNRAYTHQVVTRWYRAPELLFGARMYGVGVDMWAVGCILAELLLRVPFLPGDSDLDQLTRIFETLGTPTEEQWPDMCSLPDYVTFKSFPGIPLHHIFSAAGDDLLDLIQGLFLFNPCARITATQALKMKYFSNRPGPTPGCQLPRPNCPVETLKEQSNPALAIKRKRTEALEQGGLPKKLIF
Chain of CDK7/CycH/MAT1 (P51946 whole entry partner): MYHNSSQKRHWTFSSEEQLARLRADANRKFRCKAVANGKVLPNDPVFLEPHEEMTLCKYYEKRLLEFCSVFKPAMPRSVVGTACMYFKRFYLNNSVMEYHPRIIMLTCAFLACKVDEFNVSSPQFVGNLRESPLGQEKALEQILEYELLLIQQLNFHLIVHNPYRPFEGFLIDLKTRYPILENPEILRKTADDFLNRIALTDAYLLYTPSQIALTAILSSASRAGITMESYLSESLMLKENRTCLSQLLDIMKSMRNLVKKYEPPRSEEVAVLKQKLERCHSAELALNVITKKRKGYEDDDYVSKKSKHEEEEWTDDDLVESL
Chain of CDK7/CycH/MAT1 (P51948 whole entry partner): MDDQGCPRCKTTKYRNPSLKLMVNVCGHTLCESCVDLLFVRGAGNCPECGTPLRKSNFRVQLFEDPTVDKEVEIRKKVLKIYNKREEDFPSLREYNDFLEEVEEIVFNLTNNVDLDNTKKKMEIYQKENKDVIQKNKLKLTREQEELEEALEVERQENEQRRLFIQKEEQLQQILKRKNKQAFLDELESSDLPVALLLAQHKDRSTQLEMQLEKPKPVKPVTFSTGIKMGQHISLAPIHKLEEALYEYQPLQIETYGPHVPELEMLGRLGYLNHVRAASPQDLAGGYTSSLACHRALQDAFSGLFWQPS
Chain of CDC7/DBF4 (O00311 whole entry): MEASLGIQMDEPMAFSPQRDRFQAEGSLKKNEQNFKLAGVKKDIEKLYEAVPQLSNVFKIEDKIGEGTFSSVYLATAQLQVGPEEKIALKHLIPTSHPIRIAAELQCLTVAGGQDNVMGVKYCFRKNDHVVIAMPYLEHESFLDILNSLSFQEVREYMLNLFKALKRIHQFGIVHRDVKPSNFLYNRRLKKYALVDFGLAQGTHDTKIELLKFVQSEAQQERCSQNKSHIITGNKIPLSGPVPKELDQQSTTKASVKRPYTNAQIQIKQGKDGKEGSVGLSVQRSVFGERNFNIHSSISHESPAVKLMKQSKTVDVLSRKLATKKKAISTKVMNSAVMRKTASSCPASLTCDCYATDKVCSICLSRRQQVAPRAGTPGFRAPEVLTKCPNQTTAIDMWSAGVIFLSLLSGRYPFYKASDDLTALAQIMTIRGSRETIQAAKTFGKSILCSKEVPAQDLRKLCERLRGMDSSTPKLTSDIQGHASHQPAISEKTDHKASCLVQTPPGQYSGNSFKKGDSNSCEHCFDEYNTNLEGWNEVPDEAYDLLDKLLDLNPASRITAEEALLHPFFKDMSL
Chain of CDC7/DBF4 (Q9UBU7 whole entry partner): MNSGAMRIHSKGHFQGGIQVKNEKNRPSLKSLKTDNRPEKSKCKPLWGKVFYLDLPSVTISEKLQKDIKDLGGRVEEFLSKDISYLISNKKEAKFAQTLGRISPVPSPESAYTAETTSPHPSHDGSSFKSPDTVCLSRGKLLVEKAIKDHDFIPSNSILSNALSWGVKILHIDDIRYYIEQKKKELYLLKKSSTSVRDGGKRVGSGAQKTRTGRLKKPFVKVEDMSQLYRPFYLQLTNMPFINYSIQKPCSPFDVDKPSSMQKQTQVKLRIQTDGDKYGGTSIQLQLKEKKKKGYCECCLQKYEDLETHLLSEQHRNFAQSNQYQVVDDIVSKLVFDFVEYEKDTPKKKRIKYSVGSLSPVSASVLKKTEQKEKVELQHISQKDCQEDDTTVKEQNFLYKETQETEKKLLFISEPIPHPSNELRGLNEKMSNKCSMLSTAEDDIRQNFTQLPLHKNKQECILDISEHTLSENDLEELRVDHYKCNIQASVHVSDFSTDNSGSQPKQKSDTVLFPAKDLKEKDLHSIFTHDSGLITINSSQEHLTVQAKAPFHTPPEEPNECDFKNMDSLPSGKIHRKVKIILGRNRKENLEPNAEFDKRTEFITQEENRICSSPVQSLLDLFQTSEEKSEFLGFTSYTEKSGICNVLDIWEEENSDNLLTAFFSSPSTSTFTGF
Chain of CDK12wt/CycK (Q9NYV4 whole entry): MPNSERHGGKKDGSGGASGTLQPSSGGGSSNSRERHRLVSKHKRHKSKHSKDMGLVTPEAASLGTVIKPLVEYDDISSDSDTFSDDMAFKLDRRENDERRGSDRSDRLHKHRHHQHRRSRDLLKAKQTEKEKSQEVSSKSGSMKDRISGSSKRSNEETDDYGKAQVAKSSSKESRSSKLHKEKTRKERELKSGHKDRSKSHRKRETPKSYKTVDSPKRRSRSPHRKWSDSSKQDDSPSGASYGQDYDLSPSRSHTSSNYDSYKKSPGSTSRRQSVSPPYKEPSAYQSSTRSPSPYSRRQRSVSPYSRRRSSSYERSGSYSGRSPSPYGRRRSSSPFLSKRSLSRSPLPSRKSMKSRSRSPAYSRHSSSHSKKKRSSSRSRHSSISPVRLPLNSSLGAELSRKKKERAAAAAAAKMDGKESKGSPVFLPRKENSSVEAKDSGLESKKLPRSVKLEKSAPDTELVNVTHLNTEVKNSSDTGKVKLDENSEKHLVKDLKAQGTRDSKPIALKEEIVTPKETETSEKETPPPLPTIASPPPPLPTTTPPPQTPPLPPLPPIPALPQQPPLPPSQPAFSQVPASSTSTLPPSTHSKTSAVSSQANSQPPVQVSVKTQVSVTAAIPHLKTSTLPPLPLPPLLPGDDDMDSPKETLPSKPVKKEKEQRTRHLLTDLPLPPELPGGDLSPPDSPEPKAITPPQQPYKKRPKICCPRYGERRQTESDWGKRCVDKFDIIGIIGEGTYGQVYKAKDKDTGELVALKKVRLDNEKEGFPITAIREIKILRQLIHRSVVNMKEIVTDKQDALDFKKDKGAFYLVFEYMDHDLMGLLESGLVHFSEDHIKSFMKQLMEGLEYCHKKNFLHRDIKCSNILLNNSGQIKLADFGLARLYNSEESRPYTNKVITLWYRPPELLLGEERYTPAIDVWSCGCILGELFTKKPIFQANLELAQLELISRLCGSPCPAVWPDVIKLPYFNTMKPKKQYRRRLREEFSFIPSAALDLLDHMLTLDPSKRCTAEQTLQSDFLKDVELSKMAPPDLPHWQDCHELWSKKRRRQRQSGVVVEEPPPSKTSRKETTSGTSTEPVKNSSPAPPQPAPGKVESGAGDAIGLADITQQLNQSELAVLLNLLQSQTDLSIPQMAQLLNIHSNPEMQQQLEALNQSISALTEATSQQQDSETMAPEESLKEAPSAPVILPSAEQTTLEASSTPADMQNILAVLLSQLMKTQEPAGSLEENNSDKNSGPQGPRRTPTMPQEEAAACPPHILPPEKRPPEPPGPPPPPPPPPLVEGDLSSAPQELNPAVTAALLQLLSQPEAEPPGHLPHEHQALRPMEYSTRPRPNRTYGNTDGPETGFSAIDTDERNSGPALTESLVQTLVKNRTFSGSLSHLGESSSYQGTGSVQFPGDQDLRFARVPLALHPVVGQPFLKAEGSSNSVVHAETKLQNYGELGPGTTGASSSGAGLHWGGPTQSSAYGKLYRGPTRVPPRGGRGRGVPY
Chain of CDK12wt/CycK (O75909 whole entry partner): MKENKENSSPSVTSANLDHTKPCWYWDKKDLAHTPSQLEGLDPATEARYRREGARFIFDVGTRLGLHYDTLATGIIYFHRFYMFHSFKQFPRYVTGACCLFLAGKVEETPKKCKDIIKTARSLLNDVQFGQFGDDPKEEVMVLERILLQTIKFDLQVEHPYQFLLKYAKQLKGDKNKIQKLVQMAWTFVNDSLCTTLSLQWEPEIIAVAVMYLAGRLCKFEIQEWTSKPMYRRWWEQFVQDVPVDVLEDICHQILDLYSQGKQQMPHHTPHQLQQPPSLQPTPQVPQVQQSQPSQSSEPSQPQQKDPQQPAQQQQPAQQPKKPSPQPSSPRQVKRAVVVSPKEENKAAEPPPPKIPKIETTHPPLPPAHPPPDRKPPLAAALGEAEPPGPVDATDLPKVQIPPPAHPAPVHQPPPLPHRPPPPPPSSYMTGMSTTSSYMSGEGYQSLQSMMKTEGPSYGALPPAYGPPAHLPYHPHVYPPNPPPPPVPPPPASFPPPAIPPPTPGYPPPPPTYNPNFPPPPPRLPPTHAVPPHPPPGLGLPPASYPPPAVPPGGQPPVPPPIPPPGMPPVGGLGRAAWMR

SMILES | hepatocyte CLint [1] | half-life [1] | IC50 (CDK5/p35NCK) | IC50 (CDK5/p25NCK) | IC50 (CDK1/CycB1) | IC50 (CDK12wt/CycK) | IC50 (HIPK2) | GI50 [2, 9] | GI50 [2, 10] | GI50 [3, 11] | GI50 [3, 12] | GI50 [4] | GI50 [5] | IC50 (CDK2/CycA2) | GI50 [6] | GI50 [7] | IC50 (CDK6/CycD3) | IC50 (CDK7/CycH/MAT1) | Permeability Caco-2 cells: Permeability, grade in words (Caco-2 cells) | Papp [8] | further results
CC(O)COC1CCN(c2ccc(Nc3ncc4ccc(=O)n([C@@H]5CC6CCC5C6)c4n3)cc2)CC1 (stereo partly drawn) [PS006, 8-((2R)-bicyclo[2.2.1]heptan-2-yl)-2-((4-(4-(2-hydroxypropoxy)piperidin-1-yl)phenyl)amino)pyrido[2,3-d]pyrimidin-7(8H)-one] | 49 µL/min/1e6 cells | 28.3 min | 771 nM | 1460 nM | 1960 nM | 1010 nM | 14700 nM | 2340 nM | 2200 nM | 1400 nM | 1700 nM | 420 nM | 190 nM | 203 nM | 2200 nM | 2500 nM | 108 nM | 8000 nM | (high) | 4.62 ×10⁻⁶ cm/s | SA-βGAL staining (senescence induction) (MDA-MB-231 cells): induced high levels of SA-βGAL staining; also recorded: induced high senescence; Permeability Caco-2 cells: Efflux, grade in words (Caco-2 cells): (poor); IC50 (CDC7/DBF4): 5570 nM; IC50 (ERK1): 8320 nM; IC50 (CDK4/CycD1): 18.9 nM
CC(=O)c1c(C)c2cnc(Nc3ccc(N4CCC(CCCO)CC4)cc3)nc2n(C2CCCC2)c1=O [PS009, 6-acetyl-8-cyclopentyl-2-((4-(4-(3-hydroxypropyl)piperidin-1-yl)phenyl)amino)-5-methylpyrido[2,3-d]pyrimidin-7(8H)-one] | 41.7 µL/min/1e6 cells | 33.3 min | 1860 nM | 4850 nM | 32500 nM | 17400 nM | > 50000 nM | 900 nM | 6900 nM | 3000 nM | 3300 nM | 1170 nM | 1550 nM | 768 nM | 8000 nM | 3900 nM | 125 nM | 30800 nM | (low) | < 0.43 ×10⁻⁶ cm/s | SA-βGAL staining (senescence induction) (MDA-MB-231 cells): induced high levels of SA-βGAL staining; also recorded: very high SA-BGAL activity induction; IC50 (CDC7/DBF4): > 50000 nM; IC50 (ERK1): 48900 nM; IC50 (CDK4/CycD1): 26 nM
CC(O)CCC1CCN(c2ccc(Nc3ncc4ccc(=O)n([C@@H]5CC6CCC5C6)c4n3)cc2)CC1 (stereo partly drawn) [PS004, 8-((2R)-bicyclo[2.2.1]heptan-2-yl)-2-((4-(4-(3-hydroxybutyl)piperidin-1-yl)phenyl)amino)pyrido[2,3-d]pyrimidin-7(8H)-one] | < 6.4 µL/min/1e6 cells | > 217 min | 1670 nM | 4410 nM | 16400 nM | 923 nM | > 50000 nM | 4500 nM | 5500 nM | 3600 nM | 3500 nM | 1430 nM | 1400 nM | 452 nM | 11500 nM | 3000 nM | 442 nM | 21700 nM | (low) | < 0.44 ×10⁻⁶ cm/s | IC50 (CDC7/DBF4): 9900 nM; IC50 (ERK1): 37800 nM; IC50 (CDK4/CycD1): 35.3 nM

Reference: patent US20230042936A1, “PYRIDO[2,3-d]PYRIMIDIN-7(8H)-ONES AS CDK INHIBITORS” (PROSENESTAR LLC, priority 2020, published 2023)
